# Patent publication US11247990B1, “Bicyclic fused pyridine compounds as inhibitors of TAM kinases” (ARRAY BIOPHARMA INC., priority 2017, dated 2022)
# How the values were obtained:
# [1] = target: His-tagged recombinant human AXL cytoplasmic domain (Homo sapiens (Human), UniProt P30530); test: AXL Enzyme Assay (LanthaScreen Eu Kinase Binding, TR-FRET); details: averaged IC50
# Experimental: (§1) Compounds of Formula I were screened for their ability to inhibit AXL kinase using Invitrogen's LanthaScreen™ Eu Kinase Binding technology. […] After a 60-minute incubation at 22° C., the reaction was measured using a PerkinElmer EnVision multimode plate reader via TR-FRET dual wavelength detection, and the percent of control (POC) was calculated using a ratiometric emission factor. […] The POC values are fit to a 4 parameter logistic curve and the IC50 value is point where the curve crosses 50 POC.
# [2] = target: His-tagged recombinant human MER cytoplasmic domain (Homo sapiens (Human), UniProt Q12866); test: MER Enzyme Assay (LanthaScreen Eu Kinase Binding, TR-FRET); details: averaged IC50
# Experimental: as §1, with “MER” for “AXL”
# His-tagged recombinant human AXL cytoplasmic domain, sequence (P30530 473-894): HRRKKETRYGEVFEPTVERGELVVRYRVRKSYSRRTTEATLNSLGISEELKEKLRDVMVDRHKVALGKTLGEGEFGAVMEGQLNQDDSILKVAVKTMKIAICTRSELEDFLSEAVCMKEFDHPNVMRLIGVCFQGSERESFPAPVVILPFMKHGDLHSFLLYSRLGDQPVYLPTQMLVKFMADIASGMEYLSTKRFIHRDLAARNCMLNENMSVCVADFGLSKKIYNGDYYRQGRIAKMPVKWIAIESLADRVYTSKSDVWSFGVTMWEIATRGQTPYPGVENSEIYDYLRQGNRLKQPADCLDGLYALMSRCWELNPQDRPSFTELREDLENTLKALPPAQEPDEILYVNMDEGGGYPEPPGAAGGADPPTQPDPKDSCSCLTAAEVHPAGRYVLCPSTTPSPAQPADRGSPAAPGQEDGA
# His-tagged recombinant human MER cytoplasmic domain, sequence (Q12866 527-999): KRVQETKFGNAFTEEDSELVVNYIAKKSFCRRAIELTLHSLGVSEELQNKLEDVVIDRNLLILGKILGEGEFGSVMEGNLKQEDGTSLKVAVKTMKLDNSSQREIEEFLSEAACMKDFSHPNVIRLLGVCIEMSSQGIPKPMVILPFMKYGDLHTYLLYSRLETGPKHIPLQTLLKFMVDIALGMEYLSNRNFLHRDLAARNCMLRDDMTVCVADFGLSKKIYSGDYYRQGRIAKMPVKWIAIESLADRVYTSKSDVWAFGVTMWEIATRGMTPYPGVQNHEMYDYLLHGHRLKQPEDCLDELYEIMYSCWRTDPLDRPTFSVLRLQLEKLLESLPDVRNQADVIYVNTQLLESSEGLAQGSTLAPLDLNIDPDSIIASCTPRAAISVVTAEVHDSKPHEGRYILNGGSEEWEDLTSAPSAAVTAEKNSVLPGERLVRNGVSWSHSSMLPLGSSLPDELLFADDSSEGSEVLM
IC50 [1] [nM],IC50 [2] [nM],Structure (SMILES)
< 10,< 10,"CNc1cc2c(cn1)c(-c1ccc(CN3CCN(C)CC3)cc1)nn2[C@H]1CC[C@@H](Oc2ccc(=O)n(C)n2)CC1 [Example 27, 2-methyl-6-(((1s,4s)-4-(6-(methylamino)-3-(4-((4-methylpiperazin-1-yl)methyl)phenyl)-1H-pyrazolo[4,3-c]pyridin-1-yl)cyclohexyl)oxy)pyridazin-3(2H)-one]"
< 10,< 10,"CNc1cc2c(cn1)c(-c1cnn(C)c1)nn2[C@H]1CC[C@@H](Oc2ncccc2F)CC1 [Example 122, 1-((1s,4s)-4-((3-fluoropyridin-2-yl)oxy)cyclohexyl)-N-methyl-3-(1-methyl-1H-pyrazol-4-yl)-1H-pyrazolo[4,3-c]pyridin-6-amine]"
< 10,< 10,"CNc1cc2c(cn1)c(-c1cnn(C)c1)nn2[C@H]1CC[C@@H](Oc2ncccc2C(F)(F)F)CC1 [Example 125, N-methyl-3-(1-methyl-1H-pyrazol-4-yl)-1-((1s,4s)-4-((3-(trifluoromethyl)pyridin-2-yl)oxy)cyclohexyl)-1H-pyrazolo[4,3-c]pyridin-6-amine]"
< 10,< 10,"CNc1cc2c(cn1)c(-c1cnn(C)c1)nn2[C@H]1CC[C@@H](Oc2cccnc2C)CC1 [Example 135, N-methyl-3-(1-methyl-1H-pyrazol-4-yl)-1-((1s,4s)-4-((2-methylpyridin-3-yl)oxy)cyclohexyl)-1H-pyrazolo[4,3-c]pyridin-6-amine]"
< 10,< 10,"CCc1ncccc1O[C@H]1CC[C@@H](n2nc(-c3cnn(C)c3)c3cnc(NC)cc32)CC1 [Example 145, 1-((1s,4s)-4-((2-ethylpyridin-3-yl)oxy)cyclohexyl)-N-methyl-3-(1-methyl-1H-pyrazol-4-yl)-1H-pyrazolo[4,3-c]pyridin-6-amine]"
< 10,< 10,"CNc1cc2c(cn1)c(-c1cnn(C)c1)nn2[C@H]1CC[C@@H](Oc2cccnc2F)CC1 [Example 146, 1-((1s,4s)-4-((2-fluoropyridin-3-yl)oxy)cyclohexyl)-N-methyl-3-(1-methyl-1H-pyrazol-4-yl)-1H-pyrazolo[4,3-c]pyridin-6-amine]"
< 10,< 10,"CNc1cc2c(cn1)c(-c1cnn(C)c1)nn2[C@H]1CC[C@@H](Oc2nccnc2C)CC1 [Example 150, N-methyl-3-(1-methyl-1H-pyrazol-4-yl)-1-((1s,4s)-4-((3-methylpyrazin-2-yl)oxy)cyclohexyl)-1H-pyrazolo[4,3-c]pyridin-6-amine]"
< 10,< 10,"CNc1cc2c(cn1)c(-c1cnn(C)c1)nn2[C@H]1CC[C@@H](Oc2cc(C(F)(F)F)ccn2)CC1 [Example 170, N-methyl-3-(1-methyl-1H-pyrazol-4-yl)-1-((1s,4s)-4-((4-(trifluoromethyl)pyridin-2-yl)oxy)cyclohexyl)-1H-pyrazolo[4,3-c]pyridin-6-amine]"
< 10,< 10,"CNc1cc2c(cn1)c(-c1cnn(C(C)(C)C#N)c1)nn2[C@H]1CC[C@@H](Oc2cccnc2C)CC1 [Example 202, 2-methyl-2-(4-(6-(methylamino)-1-((1s,4s)-4-((2-methylpyridin-3-yl)oxy)cyclohexyl)-1H-pyrazolo[4,3-c]pyridin-3-yl)-1H-pyrazol-1-yl)propanenitrile]"
< 10,< 10,"CNc1cc2c(cn1)c(-c1cnn(C(C)(C)CO)c1)nn2[C@H]1CC[C@@H](Oc2nccnc2C)CC1 [Example 213, 2-methyl-2-(4-(6-(methylamino)-1-((1s,4s)-4-((3-methylpyrazin-2-yl)oxy)cyclohexyl)-1H-pyrazolo[4,3-c]pyridin-3-yl)-1H-pyrazol-1-yl)propan-1-ol]"
< 10,< 10,"CNc1cc2c(cn1)c(-c1ccc(CN3CCN(C)CC3)cc1)nn2[C@H]1CC[C@@H](Oc2cnn(C)c2)CC1 [Example 232, N-methyl-1-((1s,4s)-4-((1-methyl-1H-pyrazol-4-yl)oxy)cyclohexyl)-3-(4-((4-methylpiperazin-1-yl)methyl)phenyl)-1H-pyrazolo[4,3-c]pyridin-6-amine]"
< 10,< 10,"CCNc1cc2c(cn1)c(-c1cnc(=O)n(C)c1)nn2C1CCC(Oc2nccc(C(F)(F)F)c2F)CC1 (centres unmarked) [Example 256, 5-(6-(ethylamino)-1-((1s,4s)-4-((3-fluoro-4-(trifluoromethyl)pyridin-2-yl)oxy)cyclohexyl)-1H-pyrazolo[4,3-c]pyridin-3-yl)-1-methylpyrimidin-2(1H)-one]"
< 10,< 10,"CCNc1cc2c(cn1)c(-c1cn(C)c(=O)cn1)nn2[C@H]1CC[C@@H](Oc2nccc(C(F)(F)F)c2F)CC1 [Example 257, 5-(6-(ethylamino)-1-((1s,4s)-4-((3-fluoro-4-(trifluoromethyl)pyridin-2-yl)oxy)cyclohexyl)-1H-pyrazolo[4,3-c]pyridin-3-yl)-1-methylpyrazin-2(1H)-one]"
< 10,< 10,"CCNc1cc2c(cn1)c(-c1cnn(CC(=O)N(C)C)c1)nn2[C@H]1CC[C@@H](Oc2nccc(C(F)(F)F)c2F)CC1 [Example 259, 2-(4-(6-(ethylamino)-1-((1s,4s)-4-((3-fluoro-4-(trifluoromethyl)pyridin-2-yl)oxy)cyclohexyl)-1H-pyrazolo[4,3-c]pyridin-3-yl)-1H-pyrazol-1-yl)-N,N-dimethylacetamide]"
< 10,< 10,"CNc1cc2c(cn1)c(-c1ccc3c(c1)CNC3=O)nn2[C@H]1CC[C@@H](Oc2cnn(C)c2C(F)(F)F)CC1 [Example 266, 5-(1-((1s,4s)-4-((1-methyl-5-(trifluoromethyl)-1H-pyrazol-4-yl)oxy)cyclohexyl)-6-(methylamino)-1H-pyrazolo[4,3-c]pyridin-3-yl)isoindolin-1-one]"
< 10,< 10,"CCNc1cc2c(cn1)c(-c1cnc(C)nc1)nn2[C@H]1CC[C@@H](Oc2nccc(C(F)(F)F)c2F)CC1 [Example 268, N-ethyl-1-((1s,4s)-4-((3-fluoro-4-(trifluoromethyl)pyridin-2-yl)oxy)cyclohexyl)-3-(2-methylpyrimidin-5-yl)-1H-pyrazolo[4,3-c]pyridin-6-amine]"
< 10,< 10,"CCNc1cc2c(cn1)c(C1CCOCC1)nn2[C@H]1CC[C@@H](Oc2nccc(C(F)(F)F)c2F)CC1 [Example 317, N-ethyl-1-((1s,4s)-4-((3-fluoro-4-(trifluoromethyl)pyridin-2-yl)oxy)cyclohexyl)-3-(tetrahydro-2H-pyran-4-yl)-1H-pyrazolo[4,3-c]pyridin-6-amine]"
< 10,< 10,"CCNc1cc2c(cn1)c(C1CCOC1)nn2[C@H]1CC[C@@H](Oc2nccc(C(F)(F)F)c2F)CC1 (some centres unmarked) [Example 323, N-ethyl-1-((1s,4s)-4-((3-fluoro-4-(trifluoromethyl)pyridin-2-yl)oxy)cyclohexyl)-3-(tetrahydrofuran-3-yl)-1H-pyrazolo[4,3-c]pyridin-6-amine]"
< 10,< 10,"CCNc1cc2c(cn1)c(N1CC[C@H](OC)C1)nn2[C@H]1CC[C@@H](Oc2nccc(C(F)(F)F)c2F)CC1 [Example 332, N-ethyl-1-((1s,4R)-4-((3-fluoro-4-(trifluoromethyl)pyridin-2-yl)oxy)cyclohexyl)-3-((S)-3-methoxypyrrolidin-1-yl)-1H-pyrazolo[4,3-c]pyridin-6-amine]"
< 10,< 10,"CNc1cc2c(cn1)c(-c1cnn(C)c1)nn2[C@H]1CC[C@@H](Oc2ccccc2F)CC1 [Example 353, 1-((1s,4s)-4-(2-fluorophenoxy)cyclohexyl)-N-methyl-3-(1-methyl-1H-pyrazol-4-yl)-1H-pyrazolo[4,3-c]pyridin-6-amine]"
< 10,< 10,"CNc1cc2c(cn1)c(-c1cnn(C)c1)nn2[C@H]1CC[C@@H](Oc2cccc(F)c2)CC1 [Example 354, 1-((1s,4s)-4-(3-fluorophenoxy)cyclohexyl)-N-methyl-3-(1-methyl-1H-pyrazol-4-yl)-1H-pyrazolo[4,3-c]pyridin-6-amine]"
< 10,< 10,"CNc1cc2c(cn1)c(-c1cnn(C)c1)nn2[C@H]1CC[C@@H](Oc2ccc(F)cc2)CC1 [Example 355, 1-((1s,4s)-4-(4-fluorophenoxy)cyclohexyl)-N-methyl-3-(1-methyl-1H-pyrazol-4-yl)-1H-pyrazolo[4,3-c]pyridin-6-amine]"
< 10,< 10,"CNc1cc2c(cn1)c(-c1cnn(C)c1)nn2[C@H]1CC[C@@H](Oc2cccc(F)c2F)CC1 [Example 357, 1-((1s,4s)-4-(2,3-difluorophenoxy)cyclohexyl)-N-methyl-3-(1-methyl-1H-pyrazol-4-yl)-1H-pyrazolo[4,3-c]pyridin-6-amine]"
< 10,< 10,"CNc1cc2c(cn1)c(-c1cnn(C)c1)nn2[C@H]1CC[C@@H](Oc2ccc(F)cc2F)CC1 [Example 358, 1-((1s,4s)-4-(2,4-difluorophenoxy)cyclohexyl)-N-methyl-3-(1-methyl-1H-pyrazol-4-yl)-1H-pyrazolo[4,3-c]pyridin-6-amine]"
< 10,< 10,"CNc1cc2c(cn1)c(-c1cnn(C)c1)nn2[C@H]1CC[C@@H](Oc2ccccc2Cl)CC1 [Example 360, 1-((1s,4s)-4-(2-chlorophenoxy)cyclohexyl)-N-methyl-3-(1-methyl-1H-pyrazol-4-yl)-1H-pyrazolo[4,3-c]pyridin-6-amine]"
